Where two headings read alike, the source gives them in different places. Residues, ends and D or L forms follow the SMILES beside them. No end group written: not given here.
B1: C5a: complement activation product C5a, anaphylatoxin (protein, UniProt P01031 678-751, looked up)
C5a anaphylatoxin: TLQKKIEEIAAKYKHSVVKKCCYDGACVNNDETCEQRAARISLGPRCIKAFTECCVVASQLRANISHKDMQLGR
modifications: C5a anaphylatoxin

Experiments:
RBL-2H3 cells [1] = type: cell-based, rat
Procedure: Mediator secretion by the rat mucosal mast cells, RBL-2H3-line, in response to stimulation by FcεRI clustering was monitored by measuring the activity of the secreted granular enzyme β-hexosaminidase. To this end, a monoclonal DNP-specific murine IgE-class antibody (rat clone 95.3, 1:10^3 dilution) was added to 15×10^6 cells in 10 ml DMEM and incubated in 96 well plates (100 μl suspension/well) for 2 hours. The cell monolayers were then washed three times with Tyrode's buffer (137 mM NaCl, 2.7 mM KCl, 1.8 mM CaCl2, 0.5 mM MgCl2, 0.4 mM NaH2PO4, 5.6 mM glucose, 10 mM Hepes, 0.1% BSA, pH 7.4.) and stimulated with BSA derivatized by an average of 11 DNP groups per molecule (DNP11-BSA) serving as an antigen. To study the effect of the peptides on antigen-induced response, RBL-2H3 cells were pre-incubated with various concentrations of the peptides for 5 minutes at room temperature before the antigen was added at the pre-determined suboptimal dose. The peptides were present throughout the assay. After 1 hour incubation at 37 ° C., 25 μl of the cell supernatants were removed and incubated with 50 μl of β-hexosaminidase substrate solution (1.3 mg/ml p-nitrophenyl-N-acetyl-β-D-glucosamine in 0.1 M sodium citrate, pH 4.5) at 37° C. for 45 minutes. The reaction was terminated by the addition of 150 μl of 0.2 M glycine, pH 10.7, and the optical density of the samples was measured at 405 nm. […] The total enzyme content of the cells/well (following lysis by triton-x-100) and the spontaneous enzyme release of the cells/well was measured in each experiment. All experiments were performed in triplicate and the results were calculated as net secreted enzyme activity (as fraction or percentage of total cell-content) in response to the stimulus.

[2] = Circular dichroism (CD) measurement of ordered structure; type: physicochemical; conditions: 100 μg/ml in PBS, room temperature; CD+/CD− not defined
Procedure: In order to assess possible structural features that characterize the active peptides, CD measurement were carried out. The CD measurements were performed on an Applied Photophysics spetrometer in 1 mm light path cell, at room temperature (about 25° C.). The peptides stock solutions were usually of 5 mg/ml in water and the measurements were done at a 100 μg/ml dilution in PBS.

RBL-2H3 cells [3] = conditions: Erdei et al. 1995, 1999; cited from earlier work

Molecule	Inhibition of secretion of 3H2 of RBL cells (IC50) (RBL-2H3 cells [1]) [µg/mL]	Effect on IgE-mediated degranulation of RBL-2H3 cells (literature) (RBL-2H3 cells [3])	also measured
CC[C@H](C)[C@H](NC(=O)[C@H](Cc1ccc(O)cc1)NC(=O)[C@H](CC(N)=O)NC(=O)[C@H](CO)NC(=O)[C@H](CSSC[C@H](NC(=O)[C@@H](N)CC(=O)O)C(=O)N[C@@H](CO)C(=O)N[C@@H](CC(N)=O)C(=O)N[C@@H](Cc1ccc(O)cc1)C(=O)N[C@H](C(=O)N[C@H](C(=O)N[C@@H](CCCNC(=N)N)C(=O)O)[C@@H](C)O)[C@@H](C)CC)NC(=O)[C@@H](N)CC(=O)O)C(=O)N[C@H](C(=O)N[C@@H](CCCNC(=N)N)C(=O)O)[C@@H](C)O [Dimer A (5508)2] (HELM PEPTIDE1{D.C.S.N.Y.I.T.R}|PEPTIDE2{D.C.S.N.Y.I.T.R}$PEPTIDE1,PEPTIDE2,2:R3-2:R3$$$V2.0; N-terminus and C-terminus assumed)	15		
CC[C@H](C)[C@H](NC(=O)[C@H](Cc1ccc(O)cc1)NC(=O)[C@H](CC(N)=O)NC(=O)[C@H](CSSC[C@H](NC(=O)[C@H](CO)NC(=O)[C@@H](N)CC(=O)O)C(=O)N[C@@H](CC(N)=O)C(=O)N[C@@H](Cc1ccc(O)cc1)C(=O)N[C@H](C(=O)N[C@H](C(=O)N[C@@H](CCCNC(=N)N)C(=O)O)[C@@H](C)O)[C@@H](C)CC)NC(=O)[C@H](CO)NC(=O)[C@@H](N)CC(=O)O)C(=O)N[C@H](C(=O)N[C@@H](CCCNC(=N)N)C(=O)O)[C@@H](C)O [Dimer B (5513)2] (HELM PEPTIDE1{D.S.C.N.Y.I.T.R}|PEPTIDE2{D.S.C.N.Y.I.T.R}$PEPTIDE1,PEPTIDE2,3:R3-3:R3$$$V2.0; N-terminus and C-terminus assumed)	25		
CC[C@H](C)[C@H](NC(=O)[C@H](Cc1ccc(O)cc1)NC(=O)[C@H](CC(N)=O)NC(=O)[C@H](CS)NC(=O)[C@H](CS)NC(=O)[C@@H](N)CC(=O)O)C(=O)N[C@H](C(=O)N[C@@H](CCCNC(=N)N)C(=O)O)[C@@H](C)O [Monomer C3a9, reference compound] (H-DCCNYITR-OH; N-terminus and C-terminus assumed)	200		
DCSNYITR [Monomer A (5508)]	75		
Intact human C3a: human complement component C3a, a 77-mer polypeptide as set forth in SEQ ID NO:1		inhibit the IgE-mediated degranulation of RBL-2H3 cells	Circular Dichroism [2]: CD+; Inhibition of secretion of 3H2 of RBL cells (IC50) (RBL-2H3 cells [1]; suboptimal DNP11-BSA antigen stimulus, β-hexosaminidase): 2 µg/mL
B1		no effect	
